Measurements as given in patent US20170119776A1, “CHIRAL 2,5-DISUBSTITUTED CYCLOPENTANECARBOXYLIC ACID DERIVATIVES AND USE THEREOF” (BAYER PHARMA AKTIENGESELLSCHAFT, priority 2014, published 2017).

Experiments:
Type in all cases: biochemical
[1] = target: T1, MMP-3 of the mouse (Mus musculus, UniProt P28862); experiment: In vitro MMP-3 inhibition test of the mouse
T1 construct: purchased R&D Systems 548-MP
Excerpt: (§1) The activity strength of the compounds according to the invention towards other MMPs (and therefore their selectivity) is likewise ascertained in in vitro inhibition tests. The MMP-mediated amidolytic cleavage of a suitable peptide substrate also leads here to a fluorescent light increase. The signal intensity of the fluorescent light is directly proportional to the enzyme activity. The active concentration of a test compound at which half of the enzyme is inhibited (50% signal intensity of the fluorescent light) is given as IC50 value.
Recombinant MMP-3 of the mouse (R&D Systems, 548-MP) is chemically activated in accordance with the manufacturer's instructions using APMA. 1 μl of the test compound to be analysed (as a solution in DMSO, suitable concentrations e.g. 1 nM to 30 μM) is pipetted into 24 μl of activated enzyme (final concentration e.g. 0.5 nM) in reaction buffer (50 mM Tris/HCl pH 7.5, 10 mM CaCl2, 150 mM NaCl, 0.05% Brij®-35) in a white 384-hole microtiter plate (MTP). The enzymatic reaction is started by adding the intramolecularly quenched substrate Mca-Arg-Pro-Lys-Pro-Val-Glu-Nval-Trp-Arg-Lys(Dnp)-NH2 (final concentration e.g. 5 μM; R&D Systems, ES-002), such that a total test volume of 50 μl results. The progress of the MMP-3 reaction is measured by measuring the fluorescence intensity (excitation 320 nm, emission 410 nm) over a suitable period (e.g. over 120 min at a temperature of 32° C.).
Tables 3A and 3B below give the IC50 values from these tests for the inhibition of rodent MMPs for representative embodiment examples of the present invention and also for two structurally related comparison compounds from the prior art (as racemate and separated enantiomer)→(in part as average values from several independent individual determinations and rounded to two significant places). The IC50 values were determined for racemates and enantiomers from differently generated DMSO stock solutions. Whereas an automatically created DMSO stock solution from the internal substance logistics was used for racemates by means of a standard method, in the case of enantiomers, in each case a freshly produced, manually prepared DMSO stock solution was used for a more precise direct comparison of the enantiomers with one another.

[2] = target: T2, human macrophage elastase (HME/hMMP-12) (Homo sapiens, UniProt P39900); experiment: In vitro HME inhibition test in the presence of serum albumin (2% BSA); conditions: presence of serum albumin (BSA, 2% w/w)
T2 construct: 0.5 nM HME; purchased R&D Systems 917-MP
Excerpt: (§2) The activity of the compounds according to the invention towards HME (MMP-12) is ascertained in an in vitro inhibition test. The HME-mediated amidolytic cleavage of a suitable peptide substrate leads herein to a fluorescent light increase. The signal intensity of the fluorescent light is directly proportional to the enzyme activity. The active concentration of a test compound at which half of the enzyme is inhibited (50% signal intensity of the fluorescent light) is given as IC50 value.
This test corresponds to the standard HME inhibition test described above, but using a modified reaction buffer. This reaction buffer additionally comprises bovine serum albumin (BSA, fatty acid-free, A6003, Sigma-Aldrich) of a final concentration of 2% (w/w), which corresponds to approximately half of the physiological serum albumin content.
(§3) Table 1 below gives the IC50 values from these HME inhibition tests for the working examples of the present invention and also for two structurally related comparison compounds from the prior art (as racemate or separated enantiomers)→(sometimes as average values from several independent individual determinations and rounded to two significant places). The IC50 values were determined for racemates and enantiomers from differently generated DMSO stock solutions. Whereas an automatically created DMSO stock solution from the internal substance logistics was used for racemates by means of a standard method, for enantiomers and for a more precise direct comparison of the enantiomers with one another, in each case a freshly produced, manually prepared DMSO stock solution was used.

[3] = target: T3, MMP-9 of the rat (Rattus norvegicus, UniProt P50282); experiment: In vitro MMP-9 inhibition test of the rat
T3 construct: purchased R&D Systems 5427-MM

[4] = target: T2, human macrophage elastase (HME/hMMP-12); experiment: In vitro HME inhibition test (standard / high-sensitivity), without BSA; conditions: absence of serum albumin (BSA)
Excerpt: as §2
In a 384 hole microtiter plate, in a test volume of in total 41 μl of the test buffer (0.1 M HEPES pH 7.4, 0.15 M NaCl, 0.03 M CaCl2, 0.004 mM ZnCl2, […], 0.005% Brij®), the enzyme (0.5 nM HME; R&D Systems, 917-MP, autocatalytic activation according to the manufacturer's instructions) and the intramolecularly quenched substrate [5 μM Mca-Pro-Leu-Gly-Leu-Glu-Glu-Ala-Dap(Dnp)-NH2; Bachem, M-2670] are incubated in the absence and presence of the test substance (as solution in DMSO) for two hours at 37° C. The fluorescent light intensity of the test batches is measured (excitation 323 nm, emission 393 nm). The IC50 values are ascertained by plotting the fluorescent light intensity against the active ingredient concentration.
If subnanomolar IC values are produced for high potent test substances in the standard HME inhibition test described above, then a modified test is used for their more precise determination. Here, a ten-fold lower enzyme concentration is used (final concentration e.g. 0.05 nM), in order to achieve an increased sensitivity of the test. The incubation time of the test is accordingly chosen to be longer (e.g. 16 hours).
as §3

[5] = target: T4, MMP-8 (Homo sapiens, UniProt P22894); experiment: In vitro MMP-8 inhibition test
T4 construct: purchased R&D Systems 908-MP
Excerpt: as §1
Recombinant MMP-8 (R&D Systems, 908-MP) is chemically activated in accordance with the manufacturer's instructions using APMA. 1 μl of the test compound to be analysed (as a solution in DMSO, suitable concentrations e.g. 1 nM to 30 μM) is pipette into 24 μl of activated enzyme (final concentration e.g. 0.5 nM) in reaction buffer (50 mM Tris/HCl pH 7.5, 10 mM CaCl2, 150 mM NaCl, 0.05% Brij®-35) in a white 384-hole microtiter plate (MTP). The enzymatic reaction is started by adding the intramolecularly quenched substrate Mca-Pro-Leu-Gly-Leu-Dpa(Dnp)-Ala-Arg-NH2 (final concentration e.g. 10 μM; R&D Systems, ES-001), such that a total test volume of 50 μl results. The progress of the MMP-8 reaction is measured by measuring the fluorescence intensity (excitation 320 nm, emission 410 nm) over a suitable period (e.g. over 120 min at a temperature of 32° C.).
The IC50 values were determined for racemates and enantiomers from differently generated DMSO stock solutions. Whereas an automatically produced DMSO stock solution from the internal substance logistics was used for racemates by means of a standard method, in the case of enantiomers a freshly produced, manually prepared DMSO stock solution was used in each case for a more precise direct comparison of the enantiomers with one another.

T4 sequence (P22894 101-467): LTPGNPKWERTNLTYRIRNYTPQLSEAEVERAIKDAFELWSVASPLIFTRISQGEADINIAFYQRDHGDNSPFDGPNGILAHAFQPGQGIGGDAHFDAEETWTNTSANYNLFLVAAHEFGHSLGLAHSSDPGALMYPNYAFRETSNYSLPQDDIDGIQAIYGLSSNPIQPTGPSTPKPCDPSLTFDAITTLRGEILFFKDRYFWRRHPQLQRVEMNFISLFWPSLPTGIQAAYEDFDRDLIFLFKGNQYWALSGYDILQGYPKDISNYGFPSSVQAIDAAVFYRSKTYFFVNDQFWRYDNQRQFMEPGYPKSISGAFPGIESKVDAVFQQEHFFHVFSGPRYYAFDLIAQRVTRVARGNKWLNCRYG
T1 sequence (P28862 100-477): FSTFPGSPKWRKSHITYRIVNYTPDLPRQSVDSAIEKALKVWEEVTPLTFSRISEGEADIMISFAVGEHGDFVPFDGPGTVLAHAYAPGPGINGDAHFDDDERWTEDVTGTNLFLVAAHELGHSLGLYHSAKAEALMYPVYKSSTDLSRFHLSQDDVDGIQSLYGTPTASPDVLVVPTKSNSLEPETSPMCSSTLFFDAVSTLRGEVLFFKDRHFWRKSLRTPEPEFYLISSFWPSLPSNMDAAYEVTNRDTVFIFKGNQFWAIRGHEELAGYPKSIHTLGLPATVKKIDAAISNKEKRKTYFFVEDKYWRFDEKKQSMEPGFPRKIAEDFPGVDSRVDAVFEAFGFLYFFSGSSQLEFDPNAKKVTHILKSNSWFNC
T3 sequence (P50282 108-708): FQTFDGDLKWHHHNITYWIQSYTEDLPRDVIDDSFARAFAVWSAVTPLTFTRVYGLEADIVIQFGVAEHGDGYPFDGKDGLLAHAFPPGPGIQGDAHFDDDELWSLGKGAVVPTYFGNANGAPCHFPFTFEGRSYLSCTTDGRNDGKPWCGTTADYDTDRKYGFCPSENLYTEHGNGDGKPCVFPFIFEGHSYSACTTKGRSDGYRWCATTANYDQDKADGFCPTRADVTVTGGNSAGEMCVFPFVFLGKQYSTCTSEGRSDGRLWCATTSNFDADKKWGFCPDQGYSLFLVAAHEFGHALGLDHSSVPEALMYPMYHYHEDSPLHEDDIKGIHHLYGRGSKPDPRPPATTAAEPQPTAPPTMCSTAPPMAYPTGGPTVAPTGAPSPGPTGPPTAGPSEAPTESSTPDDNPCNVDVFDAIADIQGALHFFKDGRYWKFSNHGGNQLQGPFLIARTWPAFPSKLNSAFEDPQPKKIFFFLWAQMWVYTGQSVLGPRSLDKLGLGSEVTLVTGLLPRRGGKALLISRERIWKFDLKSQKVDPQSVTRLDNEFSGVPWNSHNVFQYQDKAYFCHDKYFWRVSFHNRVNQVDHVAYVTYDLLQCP
T2 sequence (P39900 106-470): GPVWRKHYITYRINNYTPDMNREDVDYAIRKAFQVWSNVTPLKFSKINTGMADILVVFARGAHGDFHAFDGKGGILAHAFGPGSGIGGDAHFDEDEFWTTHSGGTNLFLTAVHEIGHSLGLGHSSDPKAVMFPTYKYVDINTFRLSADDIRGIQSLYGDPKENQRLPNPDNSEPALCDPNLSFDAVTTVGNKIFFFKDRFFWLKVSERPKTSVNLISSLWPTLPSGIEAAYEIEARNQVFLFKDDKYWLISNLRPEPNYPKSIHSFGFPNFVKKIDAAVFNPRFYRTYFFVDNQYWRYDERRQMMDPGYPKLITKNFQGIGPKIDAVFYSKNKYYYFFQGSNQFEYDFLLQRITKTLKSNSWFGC

IC50 [1] [nM] | IC50 [2] [nM] | IC50 [3] [nM] | IC50 [4] [nM] | IC50 [5] [nM] | SMILES
11.3 | 5.4 | 3.3 | 0.018 | < 0.61 | O=C(O)[C@@H]1[C@@H](Cn2nnc3ccccc3c2=O)CC[C@H]1C(=O)c1ccc(-c2ccc(Cl)cc2)cc1 (single isomer, unassigned; enantiomer 2) [Comparative Example A-3, (1RS,2RS,5SR)-2-[(4′-Chlorobiphenyl-4-yl)carbonyl]-5-[(4-oxo-1,2,3-benzotriazin-3(4H)-yl)methyl]cyclopentanecarboxylic acid (enantiomer 2)]
17 |  | 4.6 | 0.043 | < 0.61 | O=C(O)[C@H]1[C@H](Cn2nnc3ccccc3c2=O)CC[C@@H]1C(=O)c1ccc(-c2ccc(Cl)cc2)cc1 (racemic) [Comparative Example A-1, (1RS,2RS,5SR)-2-[(4′-chlorobiphenyl-4-yl)carbonyl]-5-[(4-oxo-1,2,3-benzotriazin-3(4H)-yl)methyl]cyclopentanecarboxylic acid (racemate)]
290 |  | 110 | 0.059 | 9.2 | O=C(O)[C@H]1[C@H](Cn2nnc3ccccc3c2=O)CC[C@@H]1C(=O)c1ccc(OCc2ccccc2)cc1 (racemic) [Example 1, (+/−)-(1RS,2RS,5SR)-2-[4-(Benzyloxy)benzoyl]-5-[(4-oxo-1,2,3-benzotriazin-3(4H)-yl)methyl]cyclopentanecarboxylic acid (racemate)]

More lines, now with the values behind:

SMILES | IC50 [1] [nM] | IC50 [2] [nM] | IC50 [3] [nM] | IC50 [4] [nM] | IC50 [5] [nM]
CCCCCOc1ccc(C(=O)CC(CCn2nnc3ccccc3c2=O)C(=O)O)cc1 (single isomer, unassigned; enantiomer 1) [Comparative Example B-2, (+)-4-Oxo-2-[2-(4-oxo-1,2,3-benzotriazin-3(4H)-yl)ethyl]-4-[4-(pentyloxy)phenyl]butanoic acid (enantiomer 1)] | 6750 | 170 | 1350 | 1.6 | 275
O=C(O)[C@H]1[C@H](Cn2nnc3ccccc3c2=O)CC[C@@H]1C(=O)c1ccc(OCc2ccccc2)cc1 [Example 2, (+)-(1S,2S,5R)-2-[4-(Benzyloxy)benzoyl]-5-[(4-oxo-1,2,3-benzotriazin-3(4H)-yl)methyl]cyclopentanecarboxylic acid] | 87 | 8.4 | 46.5 | 0.071 | 10.1
CCCCCOc1ccc(C(=O)CC(CCn2nnc3ccccc3c2=O)C(=O)O)cc1 (racemic) [Comparative Example B-1, (+/−)-4-Oxo-2-[2-(4-oxo-1,2,3-benzotriazin-3(4H)-yl)ethyl]-4-[4-(pentyloxy)phenyl]butanoic acid (racemate)] | 13000 |  | 3200 | 1.5 | 706
